Measurements from patent US20240426838A1, “CRISPR/CAS-Associated Detection Assays, Methods and Kits” (BioPoint Pty Limited, priority 2021, published 2024).

Key:
Assay type in all cases: biochemical
Cas12a [1] = assay: Optimization of chemical-based reaction buffer, RNA reporter based CRISPR/Cas12a system; conditions: chemicals added in NEB2.1 buffer; DTT 10 mM
Experimental: 10 μL 10 μM ([…]) Cas12a protein was gently mixed with 5 μL 20 μM ([…]) gRNA in 3.6 mL 1×NEB 2.1 buffer, which was diluted by Milli-Q water. Then, 6 μL 100 μM (0.6 nmol) ssRNA linked fluorescent reporter was added and well mixed to form the final reaction mixture. The prepared reaction mixture was kept on ice before use.
Three different chemicals were applied in the reaction buffer system, and the concentration of 1,4-dithiothreitol (DTT) was 10 mM, the concentration of Tris(2-carboxyethyl)phosphine hydrochloride (TCEP) was 0.5 mM, and the concentration of Polyvinyl alcohol (PVA) was 10 mg/mL.

Cas13a = target: T1, Cas13a (Leptotrichia wadei, UniProt U2PSH1); assay: Evaluation of trans-cleavage activity of chemically induced CRISPR/Cas13a system
T1 construct: Twinstrep (N); SUMO (N); His tag (only implied by HisTrap purification); host or cells: E. coli
Experimental: For all trans-cleavage evaluation experiments, the CRISPR/Cas13a reaction mixture was prepared as follows: 10 μL 4 μM (40 μmol) of Cas13a protein was gently mixed with 2 μL 20 μM (40 μmol) gRNA in 1 mL reaction buffer. Then, 6 μL 20 μM (120 μmol) of pre-synthesized ssRNA target (FAM) was added and well mixed to form the standard reaction mixture.
Diverse types of chemicals were first dissolved in MilliQ water to produce high concentration storage solutions, then a certain amount of storage solution was added into the standard CRISPR/Cas13a reaction mixture to realize the certain concentration of chemical involved final reaction mixture.
2 μL 1 μM single strand trigger RNA was applied in 100 μL prepared CRISPR/Cas13a reaction mixture for starting the CRISPR reaction process. ID3 plate reader was applied for the detection of fluorescence readout from FAM modified target with the excitation wavelength of 480 nm and emission wavelength of 520 nm.

Cas12a [2] = assay: Evaluation of trans-cleavage activity of Cas12a with chemical enhancers (fluorescence readout); conditions: for fluorescence intensity, fold of that in the control: optimised concentrations, Texas Red ssDNA target, incubation time 2 h; for performance with ssRNA target: ssRNA target (FAM), 37° C. incubation; for optimum concentration leading to the highest trans-cleavage rate: sulfhydryl reductant
Experimental: For all trans-cleavage activity evaluation experiments, the CRISPR/Cas12a reaction mixture was prepared as follows: 1 μL 100 μM ([…]) of Cas12a protein was gently mixed with 5 μL 20 μM ([…]) gRNA in 3.6 mL 1×NEB 2.1 buffer. […] Different chemical enhancers (sulfhydryl reductant and surfactant) were first dissolved in MilliQ water to produce high concentration storage solutions, then a certain amount of storage solution was added into the standard CRISPR/Cas12a reaction mixture to realize the final reaction mixture with defined concentration of enhancers.
5 μL 1 μM single strand trigger DNA was applied in 100 μL prepared CRISPR/Cas12a reaction mixture for starting the CRISPR reaction process. SpectraMax i3x multi-Mode Microplate Reader (Molecular devices) was applied for the detection of fluorescence readout.

Cas12a [3] = assay: Trans-cleavage ability of antibody-Cas12a/gRNA (BAC) conjugate with ssDNA reporters; conditions: for reaction time to reach desired fluorescent signal intensity, faster than control: BAC conjugate, 10 mM DTT
Experimental: Firstly, 2 uL 100 μM (30 ug) Cas12a protein and 10 uL 20 μM gRNA were mixed in 30 uL NEB2.1 buffer to form the Cas12a/gRNA mixture solution. In the meanwhile, 3 uL modifier from the streptavidin conjugation kit (Abcam, ab102921) was mixed with 23 uL 1.3 mg/mL (30 ug) Cry104 antibody gently. Then, the two types of solutions were mixed together and incubated for 3 hours at room temperature. After the incubation, 3 uL quencher from the streptavidin conjugation kit (Abcam, ab102921) was added into the solution to stop the excess conjugation reaction. Finally, 50% glycerol (volume) was added into the prepared antibody-Cas12a/gRNA solution for long time storage in −20° C. freezer.
For comparison, an antibody-Cas12a conjugate was prepared according to the same procedure, where only Cas12a protein was mixed with the Cry104 antibody and modifier (i.e. without gRNA).
The standard CRISPR/Cas12a mixture was first prepared using Cry104-Cas12a/gRNA conjugate. Briefly, 100 pmol of Cry104-Cas12a/gRNA conjugate was added into 3.6 mL 1×NEB 2.1 buffer. Then, 6 μL 100 μM (0.6 nmol) ssDNA linked fluorescent reporter and 36 μL 1 M DTT were added and well mixed to form the final reaction mixture. The prepared reaction mixture was kept on ice before use.
In order to evaluate the trans-cleavage ability of Cry104-Cas12a/gRNA conjugate, 5 μL 1 μM triggering ssDNA was added into 100 μL prepared standard CRISPR/Cas12a mixture and incubated for 120 min at room temperature or 37° C. before fluorescence signal test using ID3 plate reader (Excitation wavelength of 570 nm and emission wavelength of 615 nm).

Cas12a [4] = assay: Electrophoretic mobility shift assay of chemical enhancers on CRISPR/Cas12a; conditions: optimal concentrations (10 mM DTT, 500 μM TCEP, 1% PVA, 0.04% Brij23)
Experimental: This is because fluorescence process may be independently affected by chemical enhancers used here. Briefly, the standard CRISPR/Cas12a reaction mixture was prepared as per point 1 above, then chemical enhancers were added at concentrations determined to be optimal (10 mM DTT, 500 μM TCEP, 1% PVA, 0.04% Brij23), and the same volume of 1×PBS was also used as the control. […] Alternatively, 50 μL of CRISPR/Cas12a and the chemical enhancer mixture was firstly mixed with 1 μL different concentrations of target ssDNA (5 μM, 10 μM, 15 μM, 20 μM), and then either 1 μL 1 μM triggering ssDNA was added or 1 μL PBS as control. The reaction mixtures were incubated at 26° C. for 60 mins, and then deactivated at 65° C. for 15 mins. Afterwards, 10 μL of each deactivated reaction mixture was mixed with 2 μL 6× loading dye and loaded onto 3% Agarose gel with 1× GelRed nucleic acid dye for voltage-constant electrophoresis at 60V for 100 mins.

T1 sequence (U2PSH1 whole entry): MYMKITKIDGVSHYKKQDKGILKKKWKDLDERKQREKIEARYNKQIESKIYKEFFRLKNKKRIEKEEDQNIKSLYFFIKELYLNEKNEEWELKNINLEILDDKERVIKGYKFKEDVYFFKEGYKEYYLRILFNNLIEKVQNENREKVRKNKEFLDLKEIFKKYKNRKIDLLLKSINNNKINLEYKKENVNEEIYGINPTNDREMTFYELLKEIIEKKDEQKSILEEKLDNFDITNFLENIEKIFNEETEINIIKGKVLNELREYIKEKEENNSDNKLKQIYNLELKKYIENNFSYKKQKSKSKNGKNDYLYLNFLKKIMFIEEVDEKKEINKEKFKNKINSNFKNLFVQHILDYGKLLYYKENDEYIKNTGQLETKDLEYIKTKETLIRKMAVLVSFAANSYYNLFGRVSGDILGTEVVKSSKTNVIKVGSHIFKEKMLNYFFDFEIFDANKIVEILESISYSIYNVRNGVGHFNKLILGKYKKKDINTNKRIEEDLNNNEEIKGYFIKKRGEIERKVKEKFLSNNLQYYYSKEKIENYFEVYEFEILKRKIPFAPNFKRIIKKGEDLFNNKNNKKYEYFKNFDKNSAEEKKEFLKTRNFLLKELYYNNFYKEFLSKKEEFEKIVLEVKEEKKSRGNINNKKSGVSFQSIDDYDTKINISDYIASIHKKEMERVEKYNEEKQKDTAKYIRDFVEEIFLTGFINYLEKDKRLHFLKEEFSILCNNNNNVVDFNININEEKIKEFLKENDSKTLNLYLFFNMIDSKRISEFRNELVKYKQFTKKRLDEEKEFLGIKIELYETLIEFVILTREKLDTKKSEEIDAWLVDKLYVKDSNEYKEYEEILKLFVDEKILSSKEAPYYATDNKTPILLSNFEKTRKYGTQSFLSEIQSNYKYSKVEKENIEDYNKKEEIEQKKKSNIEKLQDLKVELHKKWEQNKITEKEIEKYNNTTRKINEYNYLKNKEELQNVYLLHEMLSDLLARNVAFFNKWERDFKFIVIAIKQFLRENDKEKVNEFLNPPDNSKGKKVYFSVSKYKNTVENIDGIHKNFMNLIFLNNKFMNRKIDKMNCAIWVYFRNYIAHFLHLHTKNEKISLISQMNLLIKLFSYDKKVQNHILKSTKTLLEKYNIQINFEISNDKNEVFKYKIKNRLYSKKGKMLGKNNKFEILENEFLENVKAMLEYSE

Row | Compound | performance of RNA reporter based CRISPR/Cas12a biosensing system (Cas12a [1]) | optimum concentration (Cas13a) | fluorescence signal relative to controls without DTT (Cas12a [2]; Cy5.5 ssDNA target, 120 min) | fluorescence intensity, fold of that in the control (Cas12a [2]) | performance with ssRNA target (Cas12a [2]) | optimum concentration leading to the highest trans-cleavage rate (Cas12a [2]; Cas12a) | reaction time to reach desired fluorescent signal intensity, faster than control (Cas12a [3]) | reaction time to reach desired fluorescent signal intensity, faster than control (Cas12a [3]; 37° C.) | fluorescence signal output, factor versus control reaction (Cas12a [3]; DTT 10 mM and 37° C.) | fluorescence signal increase of BAC conjugate (Cas12a [3]; DTT 10 mM, room temperature) | effect in electrophoretic mobility shift assay (Cas12a [4]) | optimum concentration of non-ionic surfactant (Cas12a [2]; Cas12a, Texas red DNA reporter)
1 | O[C@H](CS)[C@H](O)CS (racemic) [DTT, Dithiothreitol] | best performance | 5 mM | around three | 1.3 fold | Enhanced performances | 10 mM | ~50% | ~70% | approximately 2 | ~1.4 times | increased cleavage of the target DNA | –
2 | OCCS [2-ME, 2-Mercaptoethanol] | – | – | – | 3.4 fold | – | 1 mM | – | – | – | – | – | –
3 | O=C(O)CCP(CCC(=O)O)CCC(=O)O [TCEP, Tris(2-carboxyethyl)phosphine] | – | – | – | 2.4 fold | Enhanced performances | 0.5 mM | – | – | – | – | – | –
4 | Triton X-100 | – | – | – | – | – | – | – | – | – | – | – | 0.01%
